# Test results: article PMC5467912, “Asymmetric regulation of quorum-sensing receptors drives autoinducer-specific gene expression programs in Vibrio cholerae” (PLoS Genetics, 2017)
# Values joined by “and” are separate entries in the source; they are usually repeats but may differ in a detail not shown here. Equal values may be shown once.
# System: VCA0107-GFP
# Experiment: Qrr4 regulation of VCA0107-GFP translational fusion, anhydrous tetracycline-inducible qrr4 (S4 Fig)
# Type: cell-based, E. coli
# Source text: We examined whether Qrr regulation of CqsS is direct or indirect using a CqsS-mKATE2 translational fusion in E. coli expressing inducible qrr4. We reasoned that, if CqsS production is controlled by Qrr4, repression of CqsS-mKATE2 should occur when Qrr4 is induced. We verified that our system works by showing that inducible Qrr4 is capable of repressing a previously-identified direct target, VCA0107-GFP [24]. However, no repression of CqsS-mKATE2 occurred following induction of Qrr4 (S4 Fig).
# To assay qrr4 regulation of cqsS, the relative fluorescence of translational fusions (VCA0107B-GFP and CqsS-mKATE2) was measured in E. coli BWR1. E. coli carrying one of these plasmids also contained either an empty plasmid (pZA31) or pZA31 carrying anhydrous tetracycline-inducible qrr4. Qrr4-mediated repression of CqsS-mKATE2 was assessed. VCA0107-GFP is a known Qrr4-repressed target and was used as a positive control to show the system was functional. Overnight cultures were diluted 1:50 into fresh medium and aliquotted in triplicate into 96 well plates. […] OD600 and fluorescence were assessed using an Envision 2103 Multilabel Reader (Perkin Elmer).
# Supplementary file pgen.1006826.s008.tiff: S4 Fig Qrr4 indirectly regulates cqsS. Fluorescence from plasmid-encoded VCA0107-GFP (circles) and CqsS-mKATE2 (squares) was measured in E. coli. Either an empty vector (pZA31-lucNB, black) or pZA31-lucNB carrying tetracycline-inducible qrr4 (pYS245, red) was present in each strain. VCA0107 encodes a type VI secretion system component that is regulated by Qrr4. Data represent two experiments conducted in triplicate. Error bars represent standard errors of the mean. (TIFF) Click here for additional data file.
structure (smiles),measurement,setting,value
Cc1c2c(c(O)c3c(O)cccc13)C(=O)[C@]1(O)C(=O)C(C(N)=O)=C(O)[C@@H](N(C)C)[C@@H]1C2 [aTc],"Relative reporter signal, experimental averages","pVC107 Qrr4, aTc 0.0976562 ng/ml (normalization point)",1
same,"Relative reporter signal, experimental averages","pVC107 Qrr4, aTc 0.195312 ng/ml, normalized to 0.0976562 ng/ml",1.025 and 0.934
same,"Relative reporter signal, experimental averages","pVC107 Qrr4, aTc 0.390625 ng/ml, normalized to 0.0976562 ng/ml",1.044 and 1.031
same,"Relative reporter signal, experimental averages","pVC107 Qrr4, aTc 0.78125 ng/ml, normalized to 0.0976562 ng/ml",1.069 and 1.04
same,"Relative reporter signal, single replicates","pVC107 Qrr4, aTc 1.5625 ng/ml",0.9829 and 1.022 and 1.084 and 1.082 and 1.066 and 1.076
same,"Relative reporter signal, experimental averages","pVC107 Qrr4, aTc 1.5625 ng/ml, normalized to 0.0976562 ng/ml",1.075 and 1.029
same,"Relative reporter signal, single replicates","pVC107 Qrr4, aTc 3.125 ng/ml",0.9883 and 0.983 and 1.044 and 1.076 and 1.038 and 1.063
same,"Relative reporter signal, experimental averages","pVC107 Qrr4, aTc 3.125 ng/ml, normalized to 0.0976562 ng/ml",1.059 and 1.005
same,"Relative reporter signal, single replicates","pVC107 Qrr4, aTc 6.25 ng/ml",0.8986 and 0.9025 and 1.018 and 1.038 and 1.0458 and 1.143
same,"Relative reporter signal, experimental averages","pVC107 Qrr4, aTc 6.25 ng/ml, normalized to 0.0976562 ng/ml",1.075 and 0.9397
same,"Relative reporter signal, single replicates","pVC107 Qrr4, aTc 12.5 ng/ml",0.8122 and 0.8585 and 0.963 and 0.9294 and 0.9674 and 1.0333
same,"Relative reporter signal, experimental averages","pVC107 Qrr4, aTc 12.5 ng/ml, normalized to 0.0976562 ng/ml",0.9767 and 0.8779
same,"Relative reporter signal, single replicates","pVC107 Qrr4, aTc 25 ng/ml",0.8439 and 0.8636 and 0.8571 and 0.6965 and 0.6285 and 0.7212
same,"Relative reporter signal, experimental averages","pVC107 Qrr4, aTc 25 ng/ml, normalized to 0.0976562 ng/ml",0.6821 and 0.8548
same,"Relative reporter signal, single replicates","pVC107 Qrr4, aTc 50 ng/ml",0.8785 and 0.8105 and 0.7819 and 0.6416 and 0.6171 and 0.6104
same,"Relative reporter signal, experimental averages","pVC107 Qrr4, aTc 50 ng/ml, normalized to 0.0976562 ng/ml",0.623 and 0.8236
same,"Relative reporter signal, single replicates","pVC107 Qrr4, aTc 100 ng/ml",0.9222 and 0.8261 and 0.8207 and 0.6781 and 0.6674 and 0.7021
same,"Relative reporter signal, experimental averages","pVC107 Qrr4, aTc 100 ng/ml, normalized to 0.0976562 ng/ml",0.6825 and 0.8563
same,"Relative reporter signal, single replicates","pVC107 Qrr4, aTc 200 ng/ml",0.9029 and 0.8931 and 0.8706 and 0.7542 and 0.8262 and 0.8413
same,"Relative reporter signal, experimental averages","pVC107 Qrr4, aTc 200 ng/ml, normalized to 0.0976562 ng/ml",0.8072 and 0.8889
same,"Relative reporter signal, experimental averages","pVC107 vector, aTc 0.0976562 ng/ml (normalization point)",1
same,"Relative reporter signal, experimental averages","pVC107 vector, aTc 0.195312 ng/ml, normalized to 0.0976562 ng/ml",1.1928 and 0.9542
same,"Relative reporter signal, experimental averages","pVC107 vector, aTc 0.390625 ng/ml, normalized to 0.0976562 ng/ml",1.239 and 0.9963
same,"Relative reporter signal, single replicates","pVC107 vector, aTc 0.78125 ng/ml",1.048 and 0.979 and 1.04 and 0.9279
same,"Relative reporter signal, experimental averages","pVC107 vector, aTc 0.78125 ng/ml, normalized to 0.0976562 ng/ml",1.09 and 0.9823
same,"Relative reporter signal, single replicates","pVC107 vector, aTc 1.5625 ng/ml",1.061 and 1.021 and 0.9897 and 0.9644 and 1.121 and 1.094
same,"Relative reporter signal, experimental averages","pVC107 vector, aTc 1.5625 ng/ml, normalized to 0.0976562 ng/ml",1.092 and 0.9917
same,"Relative reporter signal, single replicates","pVC107 vector, aTc 3.125 ng/ml",0.9263 and 0.9693 and 1.011 and 0.9278 and 1.0391 and 1.108
same,"Relative reporter signal, experimental averages","pVC107 vector, aTc 3.125 ng/ml, normalized to 0.0976562 ng/ml",1.024 and 0.9695
same,"Relative reporter signal, single replicates","pVC107 vector, aTc 6.25 ng/ml",0.9938 and 0.9834 and 0.9842 and 0.9532 and 1.085 and 1.105
same,"Relative reporter signal, experimental averages","pVC107 vector, aTc 6.25 ng/ml, normalized to 0.0976562 ng/ml",1.061 and 0.9736
same,"Relative reporter signal, single replicates","pVC107 vector, aTc 12.5 ng/ml",0.9967 and 0.9285 and 1.002 and 0.9658 and 1.022 and 1.055
same,"Relative reporter signal, experimental averages","pVC107 vector, aTc 12.5 ng/ml, normalized to 0.0976562 ng/ml",1.025 and 0.9655
same,"Relative reporter signal, single replicates","pVC107 vector, aTc 25 ng/ml",1.488 and 0.9589 and 0.9637 and 0.9614 and 1.035 and 1.177
same,"Relative reporter signal, experimental averages","pVC107 vector, aTc 25 ng/ml, normalized to 0.0976562 ng/ml",1.233 and 0.9614
same,"Relative reporter signal, single replicates","pVC107 vector, aTc 50 ng/ml",1.1512 and 1.025 and 1.023 and 0.9608 and 1.174 and 1.186
same,"Relative reporter signal, experimental averages","pVC107 vector, aTc 50 ng/ml, normalized to 0.0976562 ng/ml",1.17 and 1.003
same,"Relative reporter signal, single replicates","pVC107 vector, aTc 100 ng/ml",1.032 and 0.8995 and 0.9791 and 1.0414 and 1.344 and 1.183
same,"Relative reporter signal, experimental averages","pVC107 vector, aTc 100 ng/ml, normalized to 0.0976562 ng/ml",1.1863 and 0.9733
same,"Relative reporter signal, single replicates","pVC107 vector, aTc 200 ng/ml",1.427 and 1.005 and 1.106 and 1.055 and 1.369 and 1.3707
same,"Relative reporter signal, experimental averages","pVC107 vector, aTc 200 ng/ml, normalized to 0.0976562 ng/ml",1.389 and 1.0553
